We go through 19 compounds from the SangsterLogP compilation.

A short description of the series: method code SF-AS, from DOI: 10.1080/02772249909358822.

In turn, `COP(=O)(OC)ON=C(C#N)c1csc2ccccc12` had a logP of 0.76.

`COc1ccc(C(C#N)=NOP(=S)(OC(C)C)OC(C)C)cc1OC` displayed a logP of 0.47.

Take `CC(C)OP(=S)(O/N=C(/C#N)c1ccccc1)OC(C)C`: the logP was 2.07.

Turning to `CC(C)OP(=O)(ON=C(C#N)c1ccc(F)cc1)OC(C)C`, the logP is -0.43.

In turn, `COC(=O)c1oc2ccccc2c1C(C#N)=NOP(=O)(OC(C)C)OC(C)C` returned a logP of 1.36.

Turning to `CCOP(=S)(OCC)ON=C(C#N)c1ccc(F)cc1`, the logP is 0.35.

For the compound `COP(=O)(OC)ON=C(C#N)c1ccc(F)cc1`, the logP is -1.08.

`COP(=S)(OC)ON=C(C#N)c1csc2ccccc12` displayed a logP of 1.94.

Consider `CCOP(=S)(OCC)ON=C(C#N)c1ccc(Cl)cc1`, for which the logP worked out at 0.47.

Turning to `CCOP(=O)(OCC)ON=C(C#N)c1csc2ccccc12`, the logP turned out to be 0.56.

In turn, `CCOP(=S)(OCC)ON=C(C#N)c1csc2ccccc12` showed a logP of 2.56.

Turning to `COP(=O)(OC)O/N=C(/C#N)c1ccccc1`, the logP was -1.01.

In turn, `CC(C)OP(=O)(O/N=C(/C#N)c1ccccc1)OC(C)C` registered a logP of 0.06.

Turning to `CC(C)OP(=O)(ON=C(C#N)c1csc2ccccc12)OC(C)C`, the logP came out at 1.56.

Regarding `CC(C)OP(=O)(ON=C(C#N)c1ccc(Cl)cc1)OC(C)C`, the logP is -0.2.

`CCOP(=S)(OCC)ON=C(C#N)c1ccc(OC)c(OC)c1`: the logP is -0.19.

Regarding `COc1ccc(C(C#N)=NOP(=O)(OC(C)C)OC(C)C)cc1OC`, the logP was -0.38.

In the case of `CCCOP(=O)(OCCC)ON=C(C#N)c1csc2ccccc12`, the logP was determined as 1.67.

In turn, `CCCCOP(=O)(OCCCC)ON=C(C#N)c1csc2ccccc12` yielded a logP of 2.73.

By logP is commonly meant a log measure of how a compound divides between an organic and an aqueous phase.
